Assay results reported in patent US5990142A, “Benzopyran derivatives having leukotriene-antagonistic action” (Laboratorios Menarini S.A., priority 1996, dated 1999).

Biological target: T1, LTD4 receptor (Cavia porcellus, UniProt Q2NNR5)
T1 construct: Guinea pig lung membranes, containing the LTD4 receptors, are purified; from tissue; host or cells: guinea-pig lung membranes
T1 sequence (Q2NNR5 1-340): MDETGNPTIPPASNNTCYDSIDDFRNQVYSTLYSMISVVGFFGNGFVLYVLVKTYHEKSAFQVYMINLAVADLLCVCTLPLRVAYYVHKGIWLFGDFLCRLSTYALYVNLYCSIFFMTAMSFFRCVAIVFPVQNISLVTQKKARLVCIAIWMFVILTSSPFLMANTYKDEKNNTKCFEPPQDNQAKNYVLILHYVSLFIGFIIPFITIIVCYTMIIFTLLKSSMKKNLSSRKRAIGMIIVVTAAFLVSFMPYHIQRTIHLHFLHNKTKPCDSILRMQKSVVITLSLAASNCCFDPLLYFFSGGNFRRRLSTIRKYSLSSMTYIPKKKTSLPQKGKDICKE
Test: [^3 H]-LTD4 Receptor Binding Inhibition Test in Guinea-pig Lung Membranes
Conditions: 0.5 nM [^3 H]-LTD4, 30 min at 25° C., pH 7.4, Cheng-Prusoff
Experimental: The antagonistic activity on LTD4 of the compounds of the present invention is determined by means of an inhibition test of the [^3 H]-LTD4 receptor binding in guinea-pig lung membranes.
[^3 H]-LTD4 Receptor Binding Inhibition Test in Guinea-pig Lung Membranes
Guinea pig lung membranes, containing the LTD4 receptors, are purified following the method described by Mong and col. (Mong et al., Prostaglandins, 1984, 28. 805). These purified membranes (150 μg/ml) are added to an incubation mixture containing 10 mM of PIPES buffer (piperazine-N,N'-bis(2-ethanesulfonic acid) (pH 7.4), 10 mM CaCl2, 10 mM MgCl2, 2 mM cysteine, 2 mM glycine, 0.5 nM [^3 H]-LTD4 (4700-6400 GBq/mmol) and different concentrations of the product under test in a final volume of 310 μl. The reaction mixture is incubated for 30 minutes at 25° C.
The radioligand bound to the membranes is separated from the free one by dilution with 4 ml washing buffer (10 mM Tris-HCl (pH 7.4) and 100 mM NaCl) at 0° C. and filtration with Whatman GF/B filters, by means of a Brandel Cell Harvester. The filters are washed 4 times with a total volume of 16 ml of washing buffer at 0° C. The radioactivity present in the filters is determined by liquid scintillation.
The specific binding is defined as the difference between the total binding of [^3 H]-LTD4 and the non-specific binding determined in the presence of 1 μM LTD4. The data obtained in the competition tests are analyzed by a computational program, which determines the inhibition constant of each compound (Ki) by means of the Cheng-Prusoff equation (Cheng et al., Biochem. Pharmacol., 1973, 22, 3094).
wherein IC50 is the concentration of compound which displaces a 50% of the bound radioligand, [L] is the concentration of [^3 H]LTD4 free in the test and Kd is the dissociation constant of the LTD4 obtained in an independent way by means of Scatchard analysis.

| Compound | Ki [nM] |
| --- | --- |
| Cc1cn(CCCCc2ccccc2)c2ccc(C(=O)Nc3cccc4c(=O)cc(-c5nnn[nH]5)oc34)cc12 [Example 17, N-[4-Oxo-2-(1H-5-tetrazolyl)-4H-1-benzopyran-8-yl]-1-(4-phenylbutyl)-3-methylindole-5-carboxamide] | 1200 ± 440 |
| O=C(O)c1cc(=O)c2cccc(/C=C/c3ccc4c(c3)CC(COCc3ccc(F)cc3)O4)c2o1 (centres unmarked) [Example 25, 8-[(E)-2-[2-(4'-Fluorobenzyloxymethyl)-2,3-dihydrobenzofuran-5-yl]ethen-1-yl]-4-oxo-4H-1-benzopyran-2-carboxylic acid] | 1.25 ± 0.3 |
| O=C(Nc1cccc2c(=O)cc(C(=O)O)oc12)c1ccc2oc(COCc3ccccc3)cc2c1 [Example 5, 8-[2-(Benzyloxymethyl)benzofuran-5-carboxamido]-4-oxo-4H-1-benzopyran-2-carboxylic acid] | 24 ± 3 |
| O=C(Nc1cc(F)cc2c(=O)cc(C(=O)O)oc12)c1ccc2c(c1)CC(CCCc1ccccc1)O2 (centres unmarked) [Example 14, 8-[2-(3-Phenylpropyl)-2,3-dihydrobenzofuran-5-carboxamido]-6-fluoro-4-oxo-4H-1-benzopyran-2-carboxylic acid] | 4.2 ± 1.1 |
| O=C(Nc1cccc2c(=O)cc(C(=O)O)oc12)c1ccc2c(c1)CC(CSCc1ccccc1)O2 (centres unmarked) [Example 10, 8-(2-Benzylthiomethyl-2,3-dihydrobenzofuran-5-carboxamido)-4-oxo-4H-1-benzopyran-2-carboxylic acid] | 9 ± 0.8 |
| O=C(Nc1cccc2c(=O)cc(-c3nnn[nH]3)oc12)c1ccc2c(c1)CC(COCc1ccc(F)cc1)O2 (centres unmarked) [Example 12, N-[4-Oxo-2-(1H-5-tetrazolyl)-4H-1-benzopyran-8-yl]-2-(4'-fluorobenzyloxymethyl)-2,3-dihydrobenzofuran-5-carboxamide] | 0.39 ± 0.1 |
| O=C(O)c1cc(=O)c2cccc(/C=C/c3ccc(OCCCCc4ccc(F)cc4)cc3)c2o1 [Example 22, 8-[(E)-2-[4-[4-(4-Fluorophenyl)butoxy]phenyl]-ethen-1-yl]-4-oxo-4H-1-benzopyran-2-carboxylic acid] | 6 ± 3 |
| O=C(O)c1cc(=O)c2cccc(NC(=O)c3cc4c(cc3Cl)OC(CCCc3ccccc3)C4)c2o1 (centres unmarked) [Example 16, 8-[6-Chloro-2-(3-phenylpropyl)-2,3-dihydrobenzofuran-5-carboxamido]-4-oxo-4H-1-benzopyran-2-carboxylic acid] | 169 ± 24 |
| O=c1cc(-c2nnn[nH]2)oc2c(/C=C/c3ccc4c(c3)CC(COCc3ccc(F)cc3)O4)cccc12 (centres unmarked) [Example 26, 8-[(E)-2-[2-(4'-fluorobenzyloxymethyl)-2,3-dihydrobenzofuran-5-yl]ethen-1-yl]-4-oxo-2-(5-1H-tetrazolyl)-4H-1-benzopyran] | 0.46 ± 0.1 |
| O=C(O)c1cc(=O)c2cccc(/C=C/c3ccc(OCCCCc4ccccc4)cc3)c2o1 [Example 20, 4-oxo-8-[(E)-2-[4-(4-phenylbutoxy)phenyl]ethen-1-yl]-4H-1-benzopyran-2-carboxylic acid] | 6.2 ± 1.3 |
| O=C(Nc1cccc2c(=O)cc(-c3nnn[nH]3)oc12)c1ccc2c(c1)CCC(CCCc1ccccc1)O2 (centres unmarked) [Example 4, N-[4-Oxo-2-(1H-5-tetrazolyl)-4H-1-benzopyran-8-yl]-2-(3-phenylpropyl)chromane-6-carboxamide] | 2.3 ± 0.2 |
| O=C(O)c1cc(=O)c2cccc(OCc3ccc(OCCCCc4ccccc4)cc3)c2o1 [Example 18, 8-[[4-(4-phenylbutoxy)phenyl]methyloxy]-4-oxo-4H-1-benzopyran-2-carboxylic acid] | 174 ± 43 |
| O=C(Nc1cccc2c(=O)cc(C(=O)O)oc12)c1ccc2c(c1)CC(COCc1ccccc1)O2 (centres unmarked) [Example 6, 8-(2-Benzyloxymethyl-2,3-dihydrobenzofuran-5-carboxamido)-4-oxo-4H-1-benzopyran-2-carboxylic acid] | 6 ± 2.1 |
| O=C(Nc1cccc2c(=O)cc(C(=O)O)oc12)c1ccc2c(c1)CC(CCCc1ccccc1)O2 (centres unmarked) [Example 8, 8-[2-(3-Phenylpropyl)-2,3-dihydrobenzofuran-5-carboxamido]-4-oxo-4H-1-benzopyran-2-carboxylic acid] | 1.73 ± 0.2 |
| O=C(O)c1cc(=O)c2cccc(NC(=O)c3ccc4c(c3Cl)CC(CCCc3ccccc3)O4)c2o1 (centres unmarked) [Example 15, 8-[4-Chloro-2-(3-phenylpropyl)-2,3-dihydrobenzofuran-5-carboxamido]-4-oxo-4H-1-benzopyran-2-carboxylic acid] | 102 ± 48 |
| O=C(Nc1cccc2c(=O)cc(-c3nnn[nH]3)oc12)c1ccc2c(c1)CC(COCc1ccccc1)O2 (centres unmarked) [Example 7, N-[4-Oxo-2-(1H-5-tetrazolyl)-4H-1-benzopyran-8-yl]-2-benzyloxymethyl-2,3-dihydrobenzofuran-5-carboxamide] | 1.88 ± 0.2 |
| O=C(O)c1cc(=O)c2cccc(NS(=O)(=O)c3ccc(OCCCCc4ccccc4)cc3)c2o1 [Example 19, 8-[[4-(4-Phenylbutoxy)phenyl]sulfonylamino]-4-oxo-4H-1-benzopyran-2-carboxylic acid] | 6 ± 1 |
| O=C(Nc1cccc2c(=O)cc(C(=O)O)oc12)c1cc(Cl)c2c(c1)CC(CCCc1ccccc1)O2 (centres unmarked) [Example 13, 8-[7-chloro-2-(3-phenylpropyl)-2,3-dihydrobenzofuran-5-carboxamido]-4-oxo-4H-1-benzopyran-2-carboxylic acid] | 9.3 ± 3 |
| O=c1cc(-c2nnn[nH]2)oc2c(/C=C/c3ccc(OCCCCc4ccc(F)cc4)cc3)cccc12 [Example 23, 8-[(E)-2-[4-[4-(4-Fluorophenyl)butoxy]phenyl]ethen-1-yl]-4-oxo-2-(5-1H-tetrazolyl)-4H-1-benzopyran] | 0.39 ± 0.1 |
| O=C(Nc1cccc2c(=O)cc(C(=O)O)oc12)c1ccc2c(c1)CCC(COCc1ccccc1)O2 (centres unmarked) [Example 1, 8-[2-(Benzyloxymethyl)chromane-6-carboxamido]-4-oxo-4H-1-benzopyran-2-carboxylic acid] | 145 ± 34 |
| O=C(Nc1cccc2c(=O)cc(-c3nnn[nH]3)oc12)c1ccc2c(c1)CC(CCCc1ccccc1)O2 (centres unmarked) [Example 9, N-[4-Oxo-2-(1H-5-tetrazolyl)-4H-1-benzopyran-8-yl]-2-(3-phenylpropyl)-2,3-dihydrobenzofuran-5-carboxamide] | 1.1 ± 0.2 |
| O=c1cc(-c2nnn[nH]2)oc2c(/C=C/c3ccc(OCCCCc4ccccc4)cc3)cccc12 [Example 21, 8-[(E)-2-[4-(4-Phenylbutoxy)phenyl]ethen-1-yl]-4-oxo-2-(5-1H-tetrazolyl]-4H-1-benzopyran] | 0.5 ± 0.2 |
| O=C(Nc1cccc2c(=O)cc(C(=O)O)oc12)c1ccc2c(c1)CCC(CCCc1ccccc1)O2 (centres unmarked) [Example 3, 8-[2-(3-Phenylpropyl)chromane-6-carboxamido]-4-oxo-4H-1-benzopyran-2-carboxylic acid] | 5.6 ± 0.5 |
| O=C(Nc1cccc2c(=O)cc(-c3nnn[nH]3)oc12)c1ccc2c(c1)CCC(COCc1ccccc1)O2 (centres unmarked) [Example 2, N-[4-Oxo-2-(1H-5-tetrazolyl)-4H-1-benzopyran-8-yl]-2-(benzyloxymethyl)chromane-6-carboxamide] | 12 ± 4 |
| O=C(Nc1cccc2c(=O)cc(C(=O)O)oc12)c1ccc2c(c1)CC(COCc1ccc(F)cc1)O2 (centres unmarked) [Example 11, 8-[2-(4'-Fluorobenzyloxymethyl)-2,3-dihydrobenzofuran-5-carboxamido]-4-oxo-4H-1-benzopyran-2-carboxylic acid] | 1.9 ± 0.04 |
| O=C(O)c1cc(=O)c2cccc(/C=C/c3ccc(OCCCCc4ccccc4)cc3F)c2o1 [Example 24, 8-[(E)-2-[4-(4-Phenylbutoxy)-2-fluorophenyl]ethen-1-yl]-4-oxo-4H-1-benzopyran-2-carboxylic acid] | 22.3 ± 0.1 |
